# Activity calls are given as the source filed them. The rule behind the calls is not given here.
# Key:
# [1] = system: MDA-MB-231; assay: Induction of apoptosis in human MDA-MB-231 cells assessed as downregulation of BCL-2 expression at 0.5 to 2 uM incubated for 24 hrs by Western blotting analysis; type: functional, cell-based; settings: dose 0.5-2 µM
# [2] = system: HCT-116; assay: Induction of apoptosis in human HCT-116 cells assessed as downregulation of BCL-2 expression at 0.5 to 2 uM incubated for 24 hrs by Western blotting analysis; type: functional, cell-based; settings: dose 0.5-2 µM
# [3] = system: MDA-MB-231; assay: Antitumor activity against human MDA-MB-231 cells xenografted in BALB/c mouse assessed as decrease in GPX4 expression at 20 mg/kg,ip administrated for 21 consecutive days by immunohistochemistry; type: functional, organism-based
# [4] = biological target: CDK6/cyclin D3 (Homo sapiens) (UniProt P30281+Q00534); assay: Inhibition of CDK6/CyclinD3 (unknown origin) at 100 nM preincubated for 15 mins followed by substrate and ATP addition incubated for 10 mins by ADP-glo luminescent assay relative to control; type: protein-complex assay; settings: time 25.0 min
# [5] = system: MDA-MB-231; assay: Induction of ferroptosis in human MDA-MB-231 cells assessed as increase in intracellular ferrous ion level at 0.5 to 2 uM incubated for 24 hrs by ferroOrange probe based confocal laser scanning microscopic analysis; type: functional, cell-based; settings: dose 0.5-2 µM
# [6] = system: HCT-116; assay: Induction of apoptosis in human HCT-116 cells incubated for 24 hrs by annexin-V-FITC/PI staining based flow cytometric analysis; type: functional, cell-based
# [7] = system: MDA-MB-231; assay: Induction of cell cycle arrest in human MDA-MB-231 cells assessed as accumulation of cells at G1 phase at 0.5 to 2 uM incubated for 24 hrs by RNase/PI staining based flow cytometric analysis; type: functional; settings: dose 0.5-2 µM
# [8] = Half life in human liver microsomes in presence of NADPH incubated for 5 to 45 mins by LC/MS analysis; type: ADME, Microsome; settings: time 5-45 min
# [9] = AUC (0 to t) in Sprague-Dawley rat at 10 mg/kg,iv administration measured upto 24 hrs by LC-MS/MS analysis; type: ADME, organism-based; settings: in vivo
# [10] = Toxicity in BALB/c mouse xenografted with human MDA-MB-231 cells assessed as morphological change in kidney at 40 mg/kg,ip administrated for 21 consecutive days by hematoxylin and eosin staining based analysis; type: organism-based; settings: in vivo
# [11] = Toxicity in BALB/c mouse xenografted with human MDA-MB-231 cells assessed as morphological change in liver at 40 mg/kg,ip administrated for 21 consecutive days by hematoxylin and eosin staining based analysis; type: organism-based; settings: in vivo
# [12] = Toxicity in BALB/c mouse xenografted with human MDA-MB-231 cells assessed as morphological change in lung at 40 mg/kg,ip administrated for 21 consecutive days by hematoxylin and eosin staining based analysis; type: organism-based; settings: in vivo
# [13] = system: MDA-MB-231; assay: Antitumor activity against human MDA-MB-231 cells xenografted in BALB/c mouse assessed as decrease in phosphorylated Rb expression at 40 mg/kg,ip administrated for 21 consecutive days by immunohistochemistry; type: functional, organism-based
# [14] = system: HCT-116; assay: cells; settings: Homo sapiens, HCT-116, 48 h
# Description: Antiproliferative activity against human HCT-116 cells assessed as inhibition of cell growth incubated for 48 hrs by CCK-8 assay
# [15] = Toxicity in BALB/c mouse xenografted with human MDA-MB-231 cells assessed as morphological change in kidney at 20 mg/kg,ip administrated for 21 consecutive days by hematoxylin and eosin staining based analysis; type: organism-based; settings: in vivo
# [16] = Intrinsic clearance in human liver microsomes in presence of NADPH incubated for 5 to 45 mins by LC/MS analysis; type: ADME, Microsome; settings: time 5-45 min, read-out: CLH
# [17] = system: HCT-116; assay: Induction of cell cycle arrest in human HCT-116 cells assessed as accumulation of cells at G1 phase at 0.5 to 2 uM incubated for 24 hrs by RNase/PI staining based flow cytometric analysis; type: functional; settings: dose 0.5-2 µM
# [18] = Cmax in Sprague-Dawley rat at 10 mg/kg,iv administration measured upto 24 hrs by LC-MS/MS analysis; type: ADME, organism-based; settings: in vivo
# [19] = system: MDA-MB-231; assay: Induction of apoptosis in human MDA-MB-231 cells incubated for 24 hrs by annexin-V-FITC/PI staining based flow cytometric analysis; type: functional, cell-based
# [20] = biological target: CDK4/Cyclin D3 (Homo sapiens, UniProt P11802); assay: Inhibition of CDK4/CyclinD3 (unknown origin) preincubated for 15 mins followed by substrate and ATP addition incubated for 10 mins by ADP-glo luminescent assay; type: protein-complex assay
# CDK4/Cyclin D3, sequence (P11802 whole entry): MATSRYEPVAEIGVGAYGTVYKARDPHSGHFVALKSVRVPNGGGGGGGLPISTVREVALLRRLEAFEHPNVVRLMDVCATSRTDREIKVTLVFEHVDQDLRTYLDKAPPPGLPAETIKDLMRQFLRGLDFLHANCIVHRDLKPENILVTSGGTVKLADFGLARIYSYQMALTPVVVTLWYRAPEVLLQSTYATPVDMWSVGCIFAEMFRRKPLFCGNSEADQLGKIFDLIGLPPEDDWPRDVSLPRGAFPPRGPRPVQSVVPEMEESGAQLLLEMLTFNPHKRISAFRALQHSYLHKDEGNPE
# CDK4/Cyclin D3, sequence (P30281 whole entry, further chain): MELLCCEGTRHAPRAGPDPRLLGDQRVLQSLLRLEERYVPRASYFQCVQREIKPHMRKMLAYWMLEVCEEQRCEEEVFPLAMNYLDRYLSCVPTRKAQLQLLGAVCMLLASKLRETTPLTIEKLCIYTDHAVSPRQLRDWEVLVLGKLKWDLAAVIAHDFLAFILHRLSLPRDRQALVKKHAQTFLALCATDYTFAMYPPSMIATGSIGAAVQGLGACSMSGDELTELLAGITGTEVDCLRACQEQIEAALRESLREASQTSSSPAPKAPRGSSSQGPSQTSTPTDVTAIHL
smiles,measurement,setting,value
COc1ccc2c(c1)NC(=O)/C2=C1\Nc2ccccc2\C1=N/OCCCNC(=O)CCn1cc(COc2ccc(N(C(=O)CCl)C(C(=O)NCCc3ccccc3)c3cccs3)cc2Cl)nn1 (stereo not given),Activity,[1],Active
same,Activity,[2],Active
same,Activity,[3],Active
same,inhibition,[4],51.8%
same,Activity,[5],Active
same,Activity,[6],Dose-Dependent Effect
same,Activity,[7],Active
same,half-life,[8],58.7 min
same,AUC(0-t) at 24 h,[9],15.7 µg·h/mL
same,Activity,[10],Non-Toxic
same,Activity,[11],Non-Toxic
same,Activity,[12],Non-Toxic
same,Activity,[13],Active
same,IC50,[14],0.75 µM
same,Activity,[15],Non-Toxic
same,CLint scaled,[16],1.64 L/h/kg
same,Activity,[17],Active
same,Cmax,[18],9.23 µg/mL
same,Activity,[19],Dose-Dependent Effect
same,IC50,[20],0.191 µM

# From ChEMBL document CHEMBL5528035, “Design, Synthesis, and Biological Evaluation for First GPX4 and CDK Dual Inhibitors” (J Med Chem, 2024)
